Measured values taken from paper PMC4657098, “A Review of the Updated Pharmacophore for the Alpha 5 GABA(A) Benzodiazepine Receptor Model” (International Journal of Medicinal Chemistry, 2015).

How the values were obtained:
[1] = target: T1, α4β3γ2 GABAA/BzR (Homo sapiens, UniProt P18507+P48169); assay: biochemical; format: binding
T1 construct: expressed in transfected cells; host or cells: LTK cells (given for XLi-093 only)

[2] = target: T2, α5β3γ2 GABAA receptor (Homo sapiens, UniProt P18507+P31644); assay: Oocyte electrophysiology, α5β3γ2; format: cell-based
T2 construct: expressed in transfected cells; host or cells: Xenopus oocytes

[3] = target: T3, 5ht1d (Homo sapiens, UniProt P28221); assay: PDSP receptor binding, 5ht1d; conditions: PDSP primary screen at 10 µM
T3 construct: purchased NIMH PDSP (Psychoactive Drug Screening Program, Roth lab, Case Western Reserve)

[4] = target: T4, 5ht5a (Homo sapiens, UniProt P47898); assay: PDSP receptor binding, 5ht5a; conditions: PDSP primary screen at 10 µM
T4 construct: purchased NIMH PDSP (Psychoactive Drug Screening Program, Roth lab, Case Western Reserve)

[5] = target: T5, α1A (Homo sapiens, UniProt P35348); assay: PDSP receptor binding, α1A; conditions: PDSP primary screen at 10 µM
T5 construct: purchased NIMH PDSP (Psychoactive Drug Screening Program, Roth lab, Case Western Reserve)

[6] = target: T6, Beta1 (Homo sapiens, UniProt P08588); assay: PDSP receptor binding, Beta1; conditions: PDSP primary screen at 10 µM
T6 construct: purchased NIMH PDSP (Psychoactive Drug Screening Program, Roth lab, Case Western Reserve)

[7] = target: T7, Beta2 (Homo sapiens, UniProt P07550); assay: PDSP receptor binding, Beta2; conditions: PDSP primary screen at 10 µM
T7 construct: purchased NIMH PDSP (Psychoactive Drug Screening Program, Roth lab, Case Western Reserve)

[8] = target: T8, CB2 (Homo sapiens, UniProt P34972); assay: PDSP receptor binding, CB2; conditions: PDSP primary screen at 10 µM
T8 construct: purchased NIMH PDSP (Psychoactive Drug Screening Program, Roth lab, Case Western Reserve)

[9] = target: T9, D1 (Homo sapiens, UniProt P21728); assay: PDSP receptor binding, D1; conditions: PDSP primary screen at 10 µM
T9 construct: purchased NIMH PDSP (Psychoactive Drug Screening Program, Roth lab, Case Western Reserve)

[10] = target: T10, D2 (Homo sapiens, UniProt P14416); assay: PDSP receptor binding, D2; conditions: PDSP primary screen at 10 µM
T10 construct: purchased NIMH PDSP (Psychoactive Drug Screening Program, Roth lab, Case Western Reserve)

[11] = target: T11, D3 (Homo sapiens, UniProt P35462); assay: PDSP receptor binding, D3; conditions: PDSP primary screen at 10 µM
T11 construct: purchased NIMH PDSP (Psychoactive Drug Screening Program, Roth lab, Case Western Reserve)

[12] = target: T12, H2 (Homo sapiens, UniProt P25021); assay: PDSP receptor binding, H2; conditions: PDSP primary screen at 10 µM
T12 construct: purchased NIMH PDSP (Psychoactive Drug Screening Program, Roth lab, Case Western Reserve)

[13] = target: T13, H3 (Homo sapiens, UniProt Q9Y5N1); assay: PDSP receptor binding, H3; conditions: PDSP primary screen at 10 µM
T13 construct: purchased NIMH PDSP (Psychoactive Drug Screening Program, Roth lab, Case Western Reserve)

[14] = target: KOR (Homo sapiens, UniProt P41145); assay: PDSP receptor binding, KOR; conditions: Case Western Reserve University, read-out: KOR Ki (secondary binding)
[15] = target: T14, M2 (Homo sapiens, UniProt P08172); assay: PDSP receptor binding, M2; conditions: PDSP primary screen at 10 µM
T14 construct: purchased NIMH PDSP (Psychoactive Drug Screening Program, Roth lab, Case Western Reserve)

[16] = target: T15, M4 (Homo sapiens, UniProt P08173); assay: PDSP receptor binding, M4; conditions: PDSP primary screen at 10 µM
T15 construct: purchased NIMH PDSP (Psychoactive Drug Screening Program, Roth lab, Case Western Reserve)

[17] = target: T16, MOR (Homo sapiens, UniProt P35372); assay: PDSP receptor binding, MOR; conditions: PDSP primary screen at 10 µM
T16 construct: purchased NIMH PDSP (Psychoactive Drug Screening Program, Roth lab, Case Western Reserve)

[18] = target: T17, NET (Homo sapiens, UniProt P23975); assay: PDSP receptor binding, NET; conditions: PDSP primary screen at 10 µM
T17 construct: purchased NIMH PDSP (Psychoactive Drug Screening Program, Roth lab, Case Western Reserve)

[19] = target: T18, σ1 (Homo sapiens, UniProt Q99720); assay: PDSP receptor binding, σ1; conditions: PDSP primary screen at 10 µM
T18 construct: purchased NIMH PDSP (Psychoactive Drug Screening Program, Roth lab, Case Western Reserve)

[20] = target: α3β3γ2 BzR/GABA(A); conditions: Figure 1; LTK cells; read-out: Binding affinity α3; cited from earlier work
[21] = target: α5β3γ2 BzR/GABA(A); conditions: text b7; read-out: Ki at the α5β3γ2 subtype; cited from earlier work
[22] = target: α6β3γ2 BzR/GABA(A); conditions: Figure 1; LTK cells; read-out: Binding affinity α6; cited from earlier work
[23] = target: α1β3γ2 GABAA/BzR (Homo sapiens, UniProt P14867+P18507); assay: Competition binding to HEK cell membranes, α1β3γ2; parameters: expressed in transfected cells; conditions: Ki α1
[24] = target: α5β3γ2 GABAA/BzR (Homo sapiens, UniProt P18507+P31644); assay: Competition binding to HEK cell membranes, α5β3γ2; parameters: expressed in transfected cells; conditions: Ki α5

C#Cc1ccc2c(c1)C(=O)N(C)Cc1c(C(=O)OCCCOC(=O)c3ncn4c3CN(C)C(=O)c3cc(C#C)ccc3-4)ncn1-2 [XLi-093 (4), 1,3-Bis(8-acetyleno-5,6-dihydro-5-methyl-6-oxo-4H-imidazo[1,5a][1,4]benzodiazepine-3-carboxy) propyl diester]
Ki [1]: 1.55 µM | efficacy type at the α5 subtype [2]: antagonist | 5ht1d binding [3]: ∗ (“∗” indicates “primary missed” (<50% inhibition at 10 µM)) | 5ht5a binding [4]: ∗ (“∗” indicates “primary missed” (<50% inhibition at 10 µM)) | α1A binding [5]: ∗ (“∗” indicates “primary missed” (<50% inhibition at 10 µM)) | Beta1 binding [6]: ∗ (“∗” indicates “primary missed” (<50% inhibition at 10 µM)) | Beta2 binding [7]: ∗ (“∗” indicates “primary missed” (<50% inhibition at 10 µM)) | CB2 binding [8]: ∗ (“∗” indicates “primary missed” (<50% inhibition at 10 µM)) | D1 binding [9]: ∗ (“∗” indicates “primary missed” (<50% inhibition at 10 µM)) | D2 binding [10]: ∗ (“∗” indicates “primary missed” (<50% inhibition at 10 µM)) | D3 binding [11]: ∗ (“∗” indicates “primary missed” (<50% inhibition at 10 µM)) | H2 binding [12]: ∗ (“∗” indicates “primary missed” (<50% inhibition at 10 µM)) | H3 binding [13]: ∗ (“∗” indicates “primary missed” (<50% inhibition at 10 µM)) | Ki [14]: 2.02 µM | M2 binding [15]: ∗ (“∗” indicates “primary missed” (<50% inhibition at 10 µM)) | M4 binding [16]: ∗ (“∗” indicates “primary missed” (<50% inhibition at 10 µM)) | MOR binding [17]: ∗ (“∗” indicates “primary missed” (<50% inhibition at 10 µM)) | NET binding [18]: ∗ (“∗” indicates “primary missed” (<50% inhibition at 10 µM)) | σ1 binding [19]: ∗ (“∗” indicates “primary missed” (<50% inhibition at 10 µM)) | Ki [20]: 0.858 µM | Ki [21]: 0.015 µM | Ki [22]: > 2 µM | Ki [23]: > 1 µM | Ki [24]: 0.015 µM
